US11865157B2, “Compositions and methods of targeting cancer stem cells” (University of Houston System, priority 2016, dated 2024)
Entries after “also recorded” stand apart in the source; their conditions may differ. Numbered stars: 1 amine (or outer) side, 2 acyl side, 3 side chain; on linkers, the order of the positions; unused ones are H or OH. Bridge positions count the residues as written; N and C are the ends. Square brackets hold non-standard residues; d marks the D form. Peptide text beside a SMILES is read from it. I, II: the chains in the order shown. Gly(N-piperonyl) = O=C(O)CNCc1ccc2c(c1)OCO2; X1 = CC(c1ccccc1)N(CC(=O)[*:2])[*:1]; Nlys = NCCCCNCC(=O)O; Nme = COCCNCC(=O)O

Tests used:
Format in all cases: cell-based
H358 unsorted cells = assay: Scratch (wound healing) assay; details: 10 μM and higher, 24 hours
Procedure: Another stem-cell-associated phenotype is the capacity of stem cells to migrate and repair gaps in a tissue or cell culture. To determine if this capacity is affected by PCS2D1, a scratch (would healing) assay was performed on H358 cells after 24 hour treatment of 0, 0.3, 1, 3 10, 30 or 100 μM of PCS2D1. Each well of confluent H358 unsorted cells was scratched using a 1000 μL pipet tip, washed, then treated with PCS2D1 for 24 hours. Each well was then stained, and the average area of the remaining scratch was calculated from a microscope viewing window near the center of the well.

H358 colonies = assay: Variation of the clonogenicity assay: treatment of established colonies, crystal violet and ALDEFluor staining
Procedure: Another set of experiments were designed to evaluate if differentiated cells from CSCs were targeted by PCS2D1 as well. A variation of the clonogenicity assay was performed, where about 300 unsorted H358 cells were plated to 35 mm plates each and allowed to form colonies for 7 days. After that time, the colonies were treated with either 0, 1, 10, 30, or 100 μM of PCS2D1 for 24 hours, and then stained with crystal violet. The colonies were examined under a microscope. […] To determine if the cells lost are CSCs or the differentiated cells, ALDEFluor staining was performed against some of the colonies at 0 and 100 μM treatment.
(§1) The clonogenicity assay was repeated with H358 cells, 500 cells/well, using 0, 10, 30 and 100 μM PCS2 treatment over 2 weeks. […] To confirm that this was due to the specific targeting on CSCs, the clonogenicity assay was performed again over 8 days, with the treatment performed from day 7 to 8 instead, to allow the colonies to establish. This was done alongside control cells plated on chamber slides and then grown under the same conditions.

H358 cells = assay: Clonogenicity assay under treatment; details: 2 weeks
Procedure: To further validate that PCS2D1 inhibiting CSCs, the effects of PCS2D1 against a stem-cell-associated phenotype were studied with regards to the capacity to form colonies from a single cell by using the clonogenicity assay. About 300 cells were plated onto 35 mm cell culture plates with either 0, 1, 10, 30, or 100 μM of PCS2D1, and allowed to grow for 2 weeks. After staining with crystal violet, both the number of colonies and the overall morphology of the colonies were evaluated.
as §1

unsorted H358 cells [1] = assay: MTS cell-proliferation assay on unsorted cells
Procedure: Further experiments were conducted to evaluate how PCS2 affects the proliferation of unsorted cancer cell populations. The standard MTS cell-proliferation assay was performed on unsorted H358 cells (known to contain 5-15% of CSCs) and measured proliferation rates over 6 days, at concentrations ranging from 100 nM to 100 μM of PCS2D1.

H358 ALDH− cells = assay: MTS survival assay on sorted cells
Procedure: To verify that PCS2-treatment has a direct effect on the survival of CSCs, an MTS survival assay was performed on sorted H358 cells. The assay is based on the reduction of MTS tetrazolium compound by viable cells to generate a colored formazan product that is soluble in cell culture media. This conversion is thought to be carried out by NAD(P)H-dependent dehydrogenase enzymes in metabolically active cells. The formazan dye produced by viable cells was quantified by measuring the absorbance at 490-500 nm. H358 cells were stained using the ALDEFluor, then the ALDH+ cells were isolated by the MD Anderson Flow Cytometry and Cell Sorting core. The sorted ALDH+ cells were treated with 1 nM to 100 μM of PCS2D1 for 24 hours, and then the relative amount of surviving cells was determined by MTS. The number of cells in the ALDH+ fraction decreased under the treatment of PCS2D1, while ALDH^− cells were unaffected (FIG. 10). […] Furthermore, this peptoid is still at the initial stage of development and further modifications can be made to optimize and increase the potency.
To verify that PCS2-treatment has a direct effect on the survival of CSCs, an MTS survival assay was performed on sorted H358 cells as described in Example 4. The number of cells in the ALDH+ fraction decreased under the treatment of PCS2D1, while ALDH^− cells were unaffected (FIG. 21). The IC50 was around 2 μM. […]

unsorted H358 cells [2] = assay: Expression of CSC markers after treatment; details: 100 μM, after 96 hours of treatment

## COCCNCC(=O)N(CCCCN)CC(=O)N(CC(=O)N(CC(=O)N(CCCCN)CC(=O)N[C@@H](CCCCN)C(=O)N[C@H](CCCCN)C(=O)N[C@@H](CCSC)C(=O)NCCCC[C@H](NC(=O)[C@H](CCSC)NC(=O)[C@@H](CCCCN)NC(=O)[C@H](CCCCN)NC(=O)CN(CCCCN)C(=O)CN(C(=O)CN(Cc1ccc2c(c1)OCO2)C(=O)CN(CCCCN)C(=O)CNCCOC)C(C)c1ccccc1)C(N)=O)C(C)c1ccccc1)Cc1ccc2c(c1)OCO2 (stereo partly drawn) [PCS2D1] (I: H-[Nme][Nlys][Gly(N-piperonyl)][X1][Nlys]K[dK]MK-NH2 / II: H-[Nme][Nlys][Gly(N-piperonyl)][X1][Nlys]K[dK]M; amide I:9-II:C; N-terminus and C-terminus assumed)
H358 unsorted cells
  migration (area of remaining scratch): migration was significantly inhibited
H358 colonies; 100 μM, ALDEFluor staining
  ALDH fluorescence of colonies: no significant fluorescence; also recorded: complete loss of ALDH^+ cells
H358 colonies; 10-30 μM, Aldefluor assay
  ALDH fluorescent cell number: reduction in fluorescent cell number
H358 colonies; colonies grown 7 days, then 24 hours treatment at 10 μM and higher
  loss of cells from the colony center: significant loss of cells from the colony center; also recorded: significant loss of “central” cells
H358 cells; 10 μM
  morphology of the colonies: significantly more dispersed colonies
H358 cells; about 300 cells, 30 and 100 μM
  colonies formed: significant decrease in colonies formed
Unsorted H358 cells [1]; 30 μM and higher, by day 2
  overall growth of the H358 cell line: significantly decreased
Unsorted H358 cells [1]; 100 μM, over 6 days
  growth of the H358 cell line: no significant growth
H358 ALDH− cells
  effect on ALDH− cells: unaffected
Unsorted H358 cells [2]
  expression of ALDH1A3: significant drop
  expression of PLEC: significant drop
  expression of SOX2: significant drop
